Values quoted from earlier work as cited in patent publication US20040157925A1, “Stable pharmaceutical composition of pravastatin” (priority 2001, published 2004).

Conditions: pH 3 or less as found in the stomach; degrades to lactone and 3-a-hydroxy-isopravastatin

## CC[C@H](C)C(=O)O[C@H]1C[C@H](O)C=C2C=C[C@H](C)[C@H](CC[C@@H](O)C[C@@H](O)CC(=O)O)[C@H]21 [Pravastatin sodium, (+)-(3R, 5R)-3,5-dihydroxy-7-[(1 S,2S,6S, 8S, 8aR)-6-hydroxy-2-methyl-8-[(S)-2-methylbutyryloxy]-1,2,6,7,8,8a-hexahydro-1-naphthyl]heptanoate]
  Stability in a low pH environment: very unstable
